The results in this text go back to patent US20230111310A1, “CARBOXYLIC ACID DERIVATIVE-SUBSTITUTED IMINO ARYL COMPOUND, PREPARATION METHOD THEREFOR, HERBICIDAL COMPOSITION AND USE THEREOF” (Qingdao Kingagroot Chemical Compound Co., Ltd., priority 2020, published 2023).

Common to all, as to experiment: Weeding effect in post-emergence stage
Holding throughout (assay type): in vivo
Holding throughout (settings): Dose 15 g/ha; level of fresh weight growth control rate

One experiment concerns Setaria viridis. In a few lines: (§1)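 Seeds are sown in soil-filled pots under 0.5-2 cm soil and grown 2 weeks in greenhouse. Plants at 2-3 leaves are sprayed with compound (acetone, Tween 80, 1.5 liter/ha methyl oleate EC, water) at 7.5 to 500 g/ha. Damage is rated 3 weeks later, averaging three repeats.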
Another experiment relates to Alopecurus japonicus. In a few lines: as §1
Another experiment relates to Digitaria sanguinalis. The procedure, abridged:
as §1

A further experiment concerns Eleusine indica. In a few lines: as §1
A further experiment relates to Abutilon theophrasti. In a few lines:
as §1

The next experiment concerns Echinochloa crusgalli. In a few lines:
as §1

For the compound `CCCCCCC(C)OC(=O)C(C)O/N=C/c1cc(-n2c(=O)cc(C(F)(F)F)n(C)c2=O)c(F)cc1Cl` (racemic) [Compound 207], in the experiment on Setaria viridis, the “Weeding effect in post-emergence stage, Setaria viridis” value (“Weeding effect … Setaria viridis” below) is reported as 5 (Level 5: growth control rate is above 85%). Also, the “Weeding effect in post-emergence stage, Alopecurus japonicus” value (from here on “Weeding effect … Alopecurus japonicus”) in the experiment with Alopecurus japonicus was 5 (Level 5: growth control rate is above 85%). Also, the “Weeding effect in post-emergence stage, Digitaria sanguinalis” value (“Weeding effect … Digitaria sanguinalis” below) in the experiment with Digitaria sanguinalis is recorded as 5 (Level 5: growth control rate is above 85%). For the same compound, in the experiment on Eleusine indica, the “Weeding effect in post-emergence stage, Eleusine indica” value (“Weeding effect … Eleusine indica” below) is 5 (Level 5: growth control rate is above 85%). The “Weeding effect in post-emergence stage, Abutilon theophrasti” value (from here on “Weeding effect … Abutilon theophrasti”) with Abutilon theophrasti is given as 5 (Level 5: growth control rate is above 85%). Moreover, the “Weeding effect in post-emergence stage, Echinochloa crusgalli” value (“Weeding effect … Echinochloa crusgalli” below) in the experiment on Echinochloa crusgalli is given as 5 (Level 5: growth control rate is above 85%).

Turning to `C=CCOC(=O)C(C)O/N=C/c1cc(-n2c(=O)cc(C(F)(F)F)n(C)c2=O)c(F)cc1Cl` (racemic) [Compound 208], in the experiment with Setaria viridis, the “Weeding effect … Setaria viridis” value was 5 (Level 5: growth control rate is above 85%). In the experiment with Alopecurus japonicus, the “Weeding effect … Alopecurus japonicus” value was 5 (Level 5: growth control rate is above 85%). For the same compound, the “Weeding effect … Digitaria sanguinalis” value in the experiment on Digitaria sanguinalis is on record as 5 (Level 5: growth control rate is above 85%). In the experiment with Eleusine indica, the “Weeding effect … Eleusine indica” value is listed as 5 (Level 5: growth control rate is above 85%). In addition, in the experiment with Abutilon theophrasti, the “Weeding effect … Abutilon theophrasti” value is listed as 5 (Level 5: growth control rate is above 85%). The “Weeding effect … Echinochloa crusgalli” value with Echinochloa crusgalli is on record as 5 (Level 5: growth control rate is above 85%).

Regarding `C=CCCOC(=O)C(C)O/N=C/c1cc(-n2c(=O)cc(C(F)(F)F)n(C)c2=O)c(F)cc1Cl` (racemic) [Compound 209], the “Weeding effect … Setaria viridis” value in the experiment with Setaria viridis is 5 (Level 5: growth control rate is above 85%). Also, the “Weeding effect … Alopecurus japonicus” value with Alopecurus japonicus is recorded as 5 (Level 5: growth control rate is above 85%). The “Weeding effect … Digitaria sanguinalis” value in the experiment on Digitaria sanguinalis is reported as 5 (Level 5: growth control rate is above 85%). In addition, the “Weeding effect … Eleusine indica” value in the experiment with Eleusine indica is recorded as 5 (Level 5: growth control rate is above 85%). The “Weeding effect … Abutilon theophrasti” value in the experiment with Abutilon theophrasti was 5 (Level 5: growth control rate is above 85%). For the same compound, the “Weeding effect … Echinochloa crusgalli” value with Echinochloa crusgalli was 5 (Level 5: growth control rate is above 85%).

For the compound `C#CCOC(=O)C(C)O/N=C/c1cc(-n2c(=O)cc(C(F)(F)F)n(C)c2=O)c(F)cc1Cl` (racemic) [Compound 212], the “Weeding effect … Setaria viridis” value in the experiment with Setaria viridis is listed as 5 (Level 5: growth control rate is above 85%). Moreover, the “Weeding effect … Alopecurus japonicus” value in the experiment with Alopecurus japonicus was 5 (Level 5: growth control rate is above 85%). The “Weeding effect … Digitaria sanguinalis” value in the experiment on Digitaria sanguinalis is listed as 5 (Level 5: growth control rate is above 85%). The “Weeding effect … Eleusine indica” value in the experiment with Eleusine indica is listed as 5 (Level 5: growth control rate is above 85%). Also, in the experiment on Abutilon theophrasti, the “Weeding effect … Abutilon theophrasti” value was 5 (Level 5: growth control rate is above 85%). For the same compound, the “Weeding effect … Echinochloa crusgalli” value in the experiment on Echinochloa crusgalli is listed as 5 (Level 5: growth control rate is above 85%).

Regarding `CC(O/N=C/c1cc(-n2c(=O)cc(C(F)(F)F)n(C)c2=O)c(F)cc1Cl)C(=O)OC1CCCC1` (racemic) [Compound 214], the “Weeding effect … Setaria viridis” value with Setaria viridis is on record as 5 (Level 5: growth control rate is above 85%). For the same compound, in the experiment on Alopecurus japonicus, the “Weeding effect … Alopecurus japonicus” value is 5 (Level 5: growth control rate is above 85%). Further, the “Weeding effect … Digitaria sanguinalis” value in the experiment on Digitaria sanguinalis was 5 (Level 5: growth control rate is above 85%). Moreover, in the experiment on Eleusine indica, the “Weeding effect … Eleusine indica” value is given as 5 (Level 5: growth control rate is above 85%). Besides, the “Weeding effect … Abutilon theophrasti” value with Abutilon theophrasti was 5 (Level 5: growth control rate is above 85%). Moreover, in the experiment with Echinochloa crusgalli, the “Weeding effect … Echinochloa crusgalli” value is 5 (Level 5: growth control rate is above 85%).

In the case of `CC(O/N=C/c1cc(-n2c(=O)cc(C(F)(F)F)n(C)c2=O)c(F)cc1Cl)C(=O)OCCF` (racemic) [Compound 216], the “Weeding effect … Setaria viridis” value in the experiment with Setaria viridis is listed as 5 (Level 5: growth control rate is above 85%). The “Weeding effect … Alopecurus japonicus” value in the experiment on Alopecurus japonicus is 4 (Level 4: growth control rate is greater than or equal to 60% and less than 85%). In addition, in the experiment on Digitaria sanguinalis, the “Weeding effect … Digitaria sanguinalis” value is recorded as 5 (Level 5: growth control rate is above 85%). The “Weeding effect … Eleusine indica” value with Eleusine indica is 5 (Level 5: growth control rate is above 85%). The “Weeding effect … Abutilon theophrasti” value in the experiment on Abutilon theophrasti is 5 (Level 5: growth control rate is above 85%). The “Weeding effect … Echinochloa crusgalli” value in the experiment on Echinochloa crusgalli is on record as 5 (Level 5: growth control rate is above 85%).

`CC(O/N=C/c1cc(-n2c(=O)cc(C(F)(F)F)n(C)c2=O)c(F)cc1Cl)C(=O)OCC(F)F` (racemic) [Compound 217]: the “Weeding effect … Setaria viridis” value in the experiment on Setaria viridis is given as 5 (Level 5: growth control rate is above 85%). Also, the “Weeding effect … Alopecurus japonicus” value in the experiment on Alopecurus japonicus is given as 5 (Level 5: growth control rate is above 85%). Besides, in the experiment with Digitaria sanguinalis, the “Weeding effect … Digitaria sanguinalis” value is 5 (Level 5: growth control rate is above 85%). Further, in the experiment on Eleusine indica, the “Weeding effect … Eleusine indica” value is 5 (Level 5: growth control rate is above 85%). Besides, in the experiment on Abutilon theophrasti, the “Weeding effect … Abutilon theophrasti” value is 5 (Level 5: growth control rate is above 85%). The “Weeding effect … Echinochloa crusgalli” value in the experiment on Echinochloa crusgalli is reported as 5 (Level 5: growth control rate is above 85%).

In the case of `CC(O/N=C/c1cc(-n2c(=O)cc(C(F)(F)F)n(C)c2=O)c(F)cc1Cl)C(=O)OCC(F)(F)F` (racemic) [Compound 218], in the experiment on Setaria viridis, the “Weeding effect … Setaria viridis” value was 5 (Level 5: growth control rate is above 85%). The “Weeding effect … Alopecurus japonicus” value with Alopecurus japonicus is recorded as 5 (Level 5: growth control rate is above 85%). Besides, in the experiment on Digitaria sanguinalis, the “Weeding effect … Digitaria sanguinalis” value is recorded as 5 (Level 5: growth control rate is above 85%). The “Weeding effect … Eleusine indica” value in the experiment with Eleusine indica was 5 (Level 5: growth control rate is above 85%). Further, the “Weeding effect … Abutilon theophrasti” value in the experiment with Abutilon theophrasti is 5 (Level 5: growth control rate is above 85%). Moreover, the “Weeding effect … Echinochloa crusgalli” value in the experiment on Echinochloa crusgalli is on record as 5 (Level 5: growth control rate is above 85%).

Consider `CC(O/N=C/c1cc(-n2c(=O)cc(C(F)(F)F)n(C)c2=O)c(F)cc1Cl)C(=O)OCC(C)(F)F` (racemic) [Compound 220], for which, in the experiment on Setaria viridis, the “Weeding effect … Setaria viridis” value is listed as 5 (Level 5: growth control rate is above 85%). The “Weeding effect … Alopecurus japonicus” value with Alopecurus japonicus is 5 (Level 5: growth control rate is above 85%). In addition, the “Weeding effect … Digitaria sanguinalis” value with Digitaria sanguinalis was 5 (Level 5: growth control rate is above 85%). For the same compound, the “Weeding effect … Eleusine indica” value with Eleusine indica is 5 (Level 5: growth control rate is above 85%). Besides, in the experiment with Abutilon theophrasti, the “Weeding effect … Abutilon theophrasti” value is 5 (Level 5: growth control rate is above 85%). Further, the “Weeding effect … Echinochloa crusgalli” value with Echinochloa crusgalli is 5 (Level 5: growth control rate is above 85%).

Consider `CC(O/N=C/c1cc(-n2c(=O)cc(C(F)(F)F)n(C)c2=O)c(F)cc1Cl)C(=O)OCCC(F)(F)F` (racemic) [Compound 221], for which the “Weeding effect … Setaria viridis” value with Setaria viridis was 5 (Level 5: growth control rate is above 85%). Besides, in the experiment on Alopecurus japonicus, the “Weeding effect … Alopecurus japonicus” value is 4 (Level 4: growth control rate is greater than or equal to 60% and less than 85%). Moreover, the “Weeding effect … Digitaria sanguinalis” value with Digitaria sanguinalis is listed as 5 (Level 5: growth control rate is above 85%). Besides, the “Weeding effect … Eleusine indica” value with Eleusine indica is on record as 5 (Level 5: growth control rate is above 85%). In addition, the “Weeding effect … Abutilon theophrasti” value in the experiment with Abutilon theophrasti is reported as 5 (Level 5: growth control rate is above 85%). Further, the “Weeding effect … Echinochloa crusgalli” value with Echinochloa crusgalli is listed as 5 (Level 5: growth control rate is above 85%).

Regarding `CC(O/N=C/c1cc(-n2c(=O)cc(C(F)(F)F)n(C)c2=O)c(F)cc1Cl)C(=O)OC/C=C/Cl` (racemic) [Compound 225], in the experiment with Setaria viridis, the “Weeding effect … Setaria viridis” value is given as 5 (Level 5: growth control rate is above 85%). Moreover, the “Weeding effect … Alopecurus japonicus” value with Alopecurus japonicus was 4 (Level 4: growth control rate is greater than or equal to 60% and less than 85%). For the same compound, the “Weeding effect … Digitaria sanguinalis” value in the experiment on Digitaria sanguinalis is given as 5 (Level 5: growth control rate is above 85%). In the experiment on Eleusine indica, the “Weeding effect … Eleusine indica” value was 5 (Level 5: growth control rate is above 85%). In addition, the “Weeding effect … Abutilon theophrasti” value in the experiment on Abutilon theophrasti is 5 (Level 5: growth control rate is above 85%). Further, the “Weeding effect … Echinochloa crusgalli” value in the experiment on Echinochloa crusgalli is 5 (Level 5: growth control rate is above 85%).

Regarding `CC(O/N=C/c1cc(-n2c(=O)cc(C(F)(F)F)n(C)c2=O)c(F)cc1Cl)C(=O)OCC#N` (racemic) [Compound 226], the “Weeding effect … Setaria viridis” value in the experiment with Setaria viridis is reported as 5 (Level 5: growth control rate is above 85%). In addition, the “Weeding effect … Alopecurus japonicus” value in the experiment on Alopecurus japonicus is listed as 5 (Level 5: growth control rate is above 85%). Further, the “Weeding effect … Digitaria sanguinalis” value in the experiment on Digitaria sanguinalis is recorded as 5 (Level 5: growth control rate is above 85%). Besides, the “Weeding effect … Eleusine indica” value in the experiment with Eleusine indica is 5 (Level 5: growth control rate is above 85%). The “Weeding effect … Abutilon theophrasti” value in the experiment on Abutilon theophrasti was 5 (Level 5: growth control rate is above 85%). For the same compound, the “Weeding effect … Echinochloa crusgalli” value in the experiment with Echinochloa crusgalli is reported as 5 (Level 5: growth control rate is above 85%).

With `CC(O/N=C/c1cc(-n2c(=O)cc(C(F)(F)F)n(C)c2=O)c(F)cc1Cl)C(=O)OCCC#N` (racemic) [Compound 227], in the experiment on Setaria viridis, the “Weeding effect … Setaria viridis” value is given as 5 (Level 5: growth control rate is above 85%). Also, the “Weeding effect … Alopecurus japonicus” value in the experiment with Alopecurus japonicus is 5 (Level 5: growth control rate is above 85%). Further, the “Weeding effect … Digitaria sanguinalis” value in the experiment on Digitaria sanguinalis is 5 (Level 5: growth control rate is above 85%). In addition, the “Weeding effect … Eleusine indica” value in the experiment with Eleusine indica was 5 (Level 5: growth control rate is above 85%). Further, the “Weeding effect … Abutilon theophrasti” value in the experiment with Abutilon theophrasti was 5 (Level 5: growth control rate is above 85%). Moreover, the “Weeding effect … Echinochloa crusgalli” value in the experiment on Echinochloa crusgalli is listed as 5 (Level 5: growth control rate is above 85%).
